Numbers after ± are expanded uncertainties.
Tests used:
[1] = DTA
[2] = Molar enthalpy of transition or fusion; settings: DSC

Row | Structure (SMILES) | Triple point temperature ([1]; Crystal 1) | Triple point temperature ([1]; Crystal 2) | Molar enthalpy of transition or fusion ([2]; Crystal 1) | Molar enthalpy of transition or fusion ([2]; Crystal 2) | Triple point temperature ([1]; Crystal 3) | Molar enthalpy of transition or fusion ([2]; Crystal 3)
1 | Clc1c(Cl)c(Cl)c2ccccc2c1Cl [naphthalene, 1,2,3,4-tetrachloro-] | 470.75 ± 3.2 K | 454.25 ± 3.2 K | 2.76 ± 0.184 kcal/mol | 0.318 ± 0.172 kcal/mol | 440.45 ± 3.2 K | 2.52 ± 0.182 kcal/mol
2 | Clc1cc2ccccc2c(Cl)c1Cl [naphthalene, 1,2,3-trichloro-] | 354.65 ± 3.2 K |  | 4.41 ± 0.196 kcal/mol |  |  | 
3 | Clc1cc2ccc(Cl)c(Cl)c2c(Cl)c1Cl [naphthalene, 1,2,3,7,8-pentachloro-] | 381.55 ± 3.2 K |  | 4.19 ± 0.194 kcal/mol |  |  | 
4 | Clc1cc(Cl)c2c(Cl)c(Cl)cc(Cl)c2c1Cl [1,2,4,5,6,8-hexachloronaphthalene] | 449.35 ± 3.2 K |  | 6.9 ± 0.22 kcal/mol |  |  | 
5 | Clc1cc2cc(Cl)c(Cl)c(Cl)c2cc1Cl [naphthalene, 1,2,3,6,7-pentachloro-] | 416.55 ± 3.2 K |  | 5.48 ± 0.206 kcal/mol |  |  | 
6 | Clc1cc(Cl)c2cc(Cl)cc(Cl)c2c1 [1,3,5,7-tetrachloronaphthalene] | 452.95 ± 3.2 K |  | 6.49 ± 0.215 kcal/mol |  |  | 
7 | Clc1ccc2ccc(Cl)c(Cl)c2c1Cl [naphthalene, 1,2,7,8-tetrachloro-] | 401.25 ± 3.2 K |  | 3.49 ± 0.189 kcal/mol |  |  | 
8 | Clc1cc2c(Cl)c(Cl)c(Cl)c(Cl)c2c(Cl)c1Cl [naphthalene, 1,2,3,4,5,6,7-heptachloro-] | 455.95 ± 3.2 K | 454.45 ± 3.2 K | 2.09 ± 0.179 kcal/mol | 2.04 ± 0.179 kcal/mol |  | 

More lines, main results first:

Row | Triple point temperature ([1]; Crystal 1) | Triple point temperature ([1]; Crystal 2) | Molar enthalpy of transition or fusion ([2]; Crystal 1) | Molar enthalpy of transition or fusion ([2]; Crystal 2) | Structure (SMILES) | Triple point temperature ([1]; Crystal 3) | Molar enthalpy of transition or fusion ([2]; Crystal 3)
9 | 412.65 ± 3.2 K | 404.15 ± 3.2 K | 2.01 ± 0.179 kcal/mol | 3.74 ± 0.191 kcal/mol | Clc1cc(Cl)c2c(Cl)c(Cl)ccc2c1Cl [1,2,4,5,6-pentachloronaphthalene] |  | 
10 | 428.95 ± 3.2 K |  | 4.72 ± 0.198 kcal/mol |  | Clc1cc(Cl)c2c(Cl)c(Cl)cc(Cl)c2c1 [1,2,4,6,8-pentachloronaphthalene] |  | 
11 | 404.25 ± 3.2 K |  | 5.4 ± 0.206 kcal/mol |  | Clc1cc2c(Cl)cc(Cl)c(Cl)c2cc1Cl [naphthalene, 1,2,4,6,7-pentachloro-] |  | 
12 | 444.85 ± 3.2 K |  | 6.15 ± 0.213 kcal/mol |  | Clc1cc(Cl)c2cc(Cl)c(Cl)c(Cl)c2c1 [1,2,3,5,7-pentachloronaphthalene] |  | 
13 | 453.25 ± 3.2 K | 443.35 ± 3.2 K | 2.02 ± 0.179 kcal/mol | 0.22 ± 0.172 kcal/mol | Clc1cc2c(Cl)ccc(Cl)c2c(Cl)c1Cl [1,2,3,5,8-pentachloronaphthalene] | 387.75 ± 3.2 K | 3.44 ± 0.189 kcal/mol

Reference: the NIST ThermoML archive (doi:10.1016/j.tca.2006.04.011)
